Broadly, the IC50 is the concentration at which inhibition is half-maximal.

The source of these data is patent US11492335B2, “Aryl or heteroaryl triazolone derivatives or salts thereof, or pharmaceutical compositions comprising the same” (YUHAN CORPORATION, priority 2018, dated 2022).

Format in all cases: biochemical
One assay concerns the target T1, recombinant human VAP-1 (Homo sapiens, UniProt Q16853).
T1 construct: purchased R&D systems
T1 sequence (Q16853 1-763): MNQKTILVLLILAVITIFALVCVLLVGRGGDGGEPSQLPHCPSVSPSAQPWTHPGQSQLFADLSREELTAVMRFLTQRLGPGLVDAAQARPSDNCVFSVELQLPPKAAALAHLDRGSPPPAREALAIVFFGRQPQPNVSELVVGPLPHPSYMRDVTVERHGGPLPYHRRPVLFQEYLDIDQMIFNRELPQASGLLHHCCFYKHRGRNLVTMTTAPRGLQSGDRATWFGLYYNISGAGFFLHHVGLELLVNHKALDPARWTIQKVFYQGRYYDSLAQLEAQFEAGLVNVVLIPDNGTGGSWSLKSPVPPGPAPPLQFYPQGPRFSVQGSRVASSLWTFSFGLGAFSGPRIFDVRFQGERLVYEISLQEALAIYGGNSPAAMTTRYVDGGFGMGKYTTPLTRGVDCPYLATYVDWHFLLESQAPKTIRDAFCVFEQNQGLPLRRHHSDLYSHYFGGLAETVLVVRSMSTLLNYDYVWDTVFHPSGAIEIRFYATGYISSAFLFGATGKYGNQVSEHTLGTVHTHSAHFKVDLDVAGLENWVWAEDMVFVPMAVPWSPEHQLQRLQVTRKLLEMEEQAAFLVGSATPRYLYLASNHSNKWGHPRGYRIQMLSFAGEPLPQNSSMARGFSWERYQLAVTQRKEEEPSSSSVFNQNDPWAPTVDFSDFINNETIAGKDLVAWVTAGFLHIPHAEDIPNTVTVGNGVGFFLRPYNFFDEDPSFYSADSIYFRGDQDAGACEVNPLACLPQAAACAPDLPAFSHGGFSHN
The assay can be described thus: Activity on recombinant human VAP-1, Amplex Red HRP-coupled hydrogen peroxide assay, benzylamine substrate. The settings on record: recombinant human VAP-1, benzylamine substrate, read-out: Inhibitory Activity (IC50, nM) human VAP-1. A digest of the protocol:
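8-point 1:3 dilutions, final DMSO <1%; 30 min enzyme preincubation, 37 °C, pH 7.4 phosphate. Start: 1 mM benzylamine + 200 uM Amplex Red + 1 U/mL HRP. Read ex544/em590 over 1-2 h; % rate decrease vs DMSO control, 4-parameter logistic IC50.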

The target in assay [1] is T2, recombinant human MAO-A (monoamine oxidase-A) (Homo sapiens, UniProt P21397).
T2 construct: purchased Sigma-Aldrich
T2 sequence (P21397 1-527): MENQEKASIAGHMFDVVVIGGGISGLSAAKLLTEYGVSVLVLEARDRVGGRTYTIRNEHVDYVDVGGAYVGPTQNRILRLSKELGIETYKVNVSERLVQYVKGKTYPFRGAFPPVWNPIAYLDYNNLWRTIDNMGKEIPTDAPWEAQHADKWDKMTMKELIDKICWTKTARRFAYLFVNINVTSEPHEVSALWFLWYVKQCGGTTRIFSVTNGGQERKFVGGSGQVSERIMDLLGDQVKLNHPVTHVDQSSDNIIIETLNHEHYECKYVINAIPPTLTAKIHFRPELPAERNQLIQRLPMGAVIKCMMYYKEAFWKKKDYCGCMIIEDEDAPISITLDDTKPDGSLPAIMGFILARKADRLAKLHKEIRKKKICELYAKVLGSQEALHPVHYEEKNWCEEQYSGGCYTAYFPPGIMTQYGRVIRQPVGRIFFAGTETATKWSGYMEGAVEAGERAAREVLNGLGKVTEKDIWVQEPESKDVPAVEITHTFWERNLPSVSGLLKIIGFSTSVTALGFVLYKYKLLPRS
Briefly: Activity on recombinant human MAO-A, Amplex Red method, 0.5 mM tyramine substrate. The settings on record: read-out: Inhibitory Activity (IC50, nM) MAO-A. The method, boiled down: (§1)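 HRP-coupled Amplex Red H2O2 assay, 50 mM sodium phosphate pH 7.4; compounds (8-point 1:3 series, final DMSO <1%) preincubated with enzyme 30 min at 37° C, then 200 uM Amplex Red, 1 U/mL HRP and substrate (MAO-A 0.5 mM tyramine; MAO-B 1 mM benzylamine) added. Resorufin fluorescence (ex 544/em 590 nm) read over 1-2 h; IC50 from four-parameter logistic fit.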

In assay [2] the target is T3, recombinant human MAO-B (monoamine oxidase-B) (Homo sapiens, UniProt P27338).
T3 construct: purchased Sigma-Aldrich
T3 sequence (P27338 1-520): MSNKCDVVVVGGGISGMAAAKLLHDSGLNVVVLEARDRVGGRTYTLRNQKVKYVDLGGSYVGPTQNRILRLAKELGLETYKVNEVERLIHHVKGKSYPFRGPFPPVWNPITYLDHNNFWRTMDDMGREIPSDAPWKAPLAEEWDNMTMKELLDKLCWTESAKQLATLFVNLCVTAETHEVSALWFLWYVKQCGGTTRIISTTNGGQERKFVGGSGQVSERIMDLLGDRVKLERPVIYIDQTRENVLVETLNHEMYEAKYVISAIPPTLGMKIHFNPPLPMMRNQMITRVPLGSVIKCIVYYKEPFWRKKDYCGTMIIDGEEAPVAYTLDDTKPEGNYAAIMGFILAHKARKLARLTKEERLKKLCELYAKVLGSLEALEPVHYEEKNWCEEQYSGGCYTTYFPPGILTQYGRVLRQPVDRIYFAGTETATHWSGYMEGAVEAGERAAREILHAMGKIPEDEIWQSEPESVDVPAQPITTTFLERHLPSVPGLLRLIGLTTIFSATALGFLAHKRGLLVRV
Briefly: Activity on recombinant human MAO-B, Amplex Red method, 1 mM benzylamine substrate. The settings on record: read-out: Inhibitory Activity (IC50, nM) MAO-B. The method, boiled down: as §1

Assay [3] addresses T4, recombinant human DAO (diamine oxidase) (Homo sapiens, UniProt P19801).
T4 construct: purchased R&D systems
T4 sequence (P19801 20-751): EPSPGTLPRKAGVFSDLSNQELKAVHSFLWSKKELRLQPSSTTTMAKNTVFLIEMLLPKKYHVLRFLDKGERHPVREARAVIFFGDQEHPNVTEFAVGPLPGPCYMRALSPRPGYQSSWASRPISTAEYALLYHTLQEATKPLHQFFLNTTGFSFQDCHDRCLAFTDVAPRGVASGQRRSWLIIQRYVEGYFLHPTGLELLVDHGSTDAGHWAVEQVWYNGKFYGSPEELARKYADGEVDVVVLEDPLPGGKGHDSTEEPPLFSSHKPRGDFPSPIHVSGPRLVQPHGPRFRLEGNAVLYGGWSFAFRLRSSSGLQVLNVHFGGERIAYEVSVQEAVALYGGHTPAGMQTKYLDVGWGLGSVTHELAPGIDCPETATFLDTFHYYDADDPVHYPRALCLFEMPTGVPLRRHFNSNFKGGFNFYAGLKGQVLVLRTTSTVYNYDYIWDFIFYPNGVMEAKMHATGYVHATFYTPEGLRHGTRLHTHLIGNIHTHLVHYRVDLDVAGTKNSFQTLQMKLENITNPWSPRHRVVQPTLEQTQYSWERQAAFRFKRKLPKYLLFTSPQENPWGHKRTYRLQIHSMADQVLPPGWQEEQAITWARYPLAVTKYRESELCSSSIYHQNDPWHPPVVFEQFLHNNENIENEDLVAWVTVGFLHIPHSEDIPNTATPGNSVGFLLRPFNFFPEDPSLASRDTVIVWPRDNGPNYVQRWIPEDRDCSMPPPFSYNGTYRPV
Briefly: Activity on recombinant human DAO, Amplex Red method, 1 mM putrescine substrate. The settings on record: recombinant human DAO, read-out: Inhibitory Activity (IC50, nM) DAO. A digest of the protocol:
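Inhibition of recombinant human DAO (diamine oxidase, R&D systems) was assessed with the Amplex Red Hydrogen Peroxide Assay Kit. Hydrogen peroxide produced from 1 mM putrescine was detected through an HRP-coupled reaction that converts Amplex Red into fluorescent resorufin, read at 544 nm excitation and 590 nm emission. IC50 values came from four-parameter logistic fits in GraphPad Prism.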

Setting [4] is: 1 mM putrescine, * = between 10 and 100 nM, ** = between 300 and 1000 nM.

SMILES strings stand for the structures. Where a name gives a salt, the structure may show the parent alone. Read-outs that look alike come from different tables or passages of the source.

In the case of `Cc1cc(-c2ccc(N3CCOCC3)nc2)cnc1-n1cnn(C/C(=C/F)CN)c1=O` [Example 149, 2-[(2E)-2-(aminomethyl)-3-fluoroprop-2-en-1-yl]-4-[5-methyl-6′-(morpholin-4-yl)-3,3′-bipyridin-6-yl]-2,4-dihydro-3H-1,2,4-triazol-3-one hydrochloride], the IC50 was 0.5 nM at recombinant human VAP-1 (30 min preincubation at 37° C.), above 100000 nM in assay [1] (0.5 mM tyramine), above 10000 nM in assay [2] (1 mM benzylamine) and 490 nM in assay [3] (setting [4]).
As for `NC/C(=C\F)Cn1ncn(-c2cccc(-c3c[nH]c4ccccc34)c2)c1=O` [Example 100, 2-[(2E)-2-(aminomethyl)-3-fluoroprop-2-en-1-yl]-4-[3-(1H-indol-3-yl)phenyl]-2,4-dihydro-3H-1,2,4-triazol-3-one hydrochloride], the IC50 was determined as 0.92 nM at recombinant human VAP-1 (30 min preincubation at 37° C.), 39300 nM in assay [1] (0.5 mM tyramine), 162 nM in assay [2] (1 mM benzylamine) and 27 nM in assay [3] (setting [4]).
On to `NC/C(=C\F)Cn1ncn(-c2cnc(-c3ccc4sc(N)nc4c3)cn2)c1=O` [Example 224, 4-[5-(2-amino-1,3-benzothiazol-5-yl)pyrazin-2-yl]-2-[(2E)-2-(aminomethyl)-3-fluoroprop-2-en-1-yl]-2,4-dihydro-3H-1,2,4-triazol-3-one], for which the IC50 at recombinant human VAP-1 is 1.3 nM; in assay [1] (0.5 mM tyramine substrate), above 100000 nM; in assay [2] (1 mM benzylamine substrate), 49 nM; in assay [3] (1 mM putrescine substrate), below 100 nM.
On the same counts, the results for `NC/C(=C\F)Cn1ncn(-c2cccc(-c3cccc(-c4noc(C5CC5)n4)c3)n2)c1=O` [Example 179, 2-[(2E)-2-(aminomethyl)-3-fluoroprop-2-en-1-yl]-4-{6-[3-(5-cyclopropyl-1,2,4-oxadiazol-3-yl)phenyl]pyridin-2-yl}-2,4-dihydro-3H-1,2,4-triazol-3-one hydrochloride] are 1.1 nM, 270000 nM, 390 nM and 3.1 nM.
As for `CC(=O)Nc1ccc(-c2cccc(-n3cnn(C/C(=C/F)CN)c3=O)c2)cc1` [Example 57, N-(3′-{1-[(2E)-2-(aminomethyl)-3-fluoroprop-2-en-1-yl]-5-oxo-1,5-dihydro-4H-1,2,4-triazol-4-yl}biphenyl-4-yl)acetamide hydrochloride], the IC50 at recombinant human VAP-1 (30 min preincubation at 37° C.) is 0.38 nM; in assay [1] (0.5 mM tyramine), 1250 nM; in assay [2] (1 mM benzylamine), above 10000 nM; in assay [3] (setting [4]) it was below 100 nM.
Turning to `CN(C)c1ccc(/C=C/c2cccc(-n3cnn(C/C(=C/F)CN)c3=O)n2)cc1` [Example 239, 2-[(E)-2-(aminomethyl)-3-fluoro-allyl]-4-[6-[(E)-2-[4-(dimethylamino)phenyl]vinyl]-2-pyridyl]-1,2,4-triazol-3-one hydrochloride], the half-maximal inhibitory concentration (IC50) was 1.6 nM on recombinant human VAP-1, above 100000 nM in assay [1] (0.5 mM tyramine substrate), 230 nM in assay [2] (1 mM benzylamine substrate) and 1600 nM in assay [3] (1 mM putrescine substrate).
On the same counts, the results for `Cc1cc(-n2cnn(C/C(=C/F)CN)c2=O)ncc1-c1ccc2cn[nH]c2c1` [Example 160, 2-[(2E)-2-(aminomethyl)-3-fluoroprop-2-en-1-yl]-4-[5-(1H-indazol-6-yl)-4-methylpyridin-2-yl]-2,4-dihydro-3H-1,2,4-triazol-3-one] are 0.37 nM, 46200 nM, 137 nM and below 100 nM.
As to `Cc1cc(-c2ccc3cn[nH]c3c2)cnc1-n1cnn(C/C(=C/F)CN)c1=O` [Example 153, 2-[(2E)-2-(aminomethyl)-3-fluoroprop-2-en-1-yl]-4-[5-(1H-indazol-6-yl)-3-methylpyridin-2-yl]-2,4-dihydro-3H-1,2,4-triazol-3-one], the IC50 was found to be 0.39 nM on recombinant human VAP-1, 96000 nM in assay [1] (0.5 mM tyramine substrate), 703 nM in assay [2] (1 mM benzylamine substrate) and 640 nM in assay [3] (1 mM putrescine substrate).
On to `NC/C(=C\F)Cn1ncn(-c2ccc(-c3ccc4c(c3)OCO4)cc2F)c1=O` [Example 45, 2-[(2E)-2-(aminomethyl)-3-fluoroprop-2-en-1-yl]-4-[4-(1,3-benzodioxol-5-yl)-2-fluorophenyl]-2,4-dihydro-3H-1,2,4-triazol-3-one hydrochloride], for which the IC50 at recombinant human VAP-1 (30 min preincubation at 37° C.) is 0.21 nM; in assay [1] (0.5 mM tyramine) it was 198 nM; in assay [2] (1 mM benzylamine), below 10 nM; in assay [3] (setting [4]) it was 1.6 nM.
With `Cc1cc(-c2ccc(-c3noc(C(C)C)n3)cc2)cnc1-n1cnn(C/C(=C/F)CN)c1=O` [Example 142, 2-[(2E)-2-(aminomethyl)-3-fluoroprop-2-en-1-yl]-4-(3-methyl-5-{4-[5-(propan-2-yl)-1,2,4-oxadiazol-3-yl]phenyl}pyridin-2-yl)-2,4-dihydro-3H-1,2,4-triazol-3-one hydrochloride], the IC50 on recombinant human VAP-1 (30 min preincubation at 37° C.) was 0.63 nM; in assay [1] (0.5 mM tyramine), above 100000 nM; in assay [2] (1 mM benzylamine), 4720 nM; in assay [3] (setting [4]), 57 nM.
